For assay [1], the target named is T1, EGFR L858R (Homo sapiens, UniProt P00533, L858R).
T1 construct: purchased SignalChem E10-122BG
Put plainly: Biochemical EGFR inhibition assay (Caliper mobility shift), EGFR L858R. The following applies: biochemical Caliper mobility shift assay, EGFR L858R enzyme; read-out: Enz EGFR L858R IC50. Summed up:
(§1)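 Apparent IC50 values come from Caliper electrophoretic separation of phosphorylated and unphosphorylated 5-FAM peptide (2.5 μM). ATP was either 1.0 mM or at Km; HEPES pH 7.5 buffer with MgCl2, DTT, 1% DMSO. Reactions ran at 25 °C until 10–20% phosphorylated, then EDTA quench.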

The target in assay [2] is intracellular phosphorylation of EGFR (Tyr1068) in PC-9 cells (Homo sapiens, UniProt P00533, DEL746-750). Put plainly: PC-9 pEGFR AlphaLISA assay. It is filed as cell-based. The following applies: 4 hours incubation, read-out: Phos EGFR PC9 IC50. Summed up: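 PC-9 cells (EGFR del746-750) in phenol-free DMEM/10% FBS, adhered overnight, then exposed to 10-point 4-fold compound dilutions for 4 h at 37 °C. Lysates assayed for pEGFR Tyr1068 by AlphaLISA SureFire Ultra; IC50 from percent pEGFR inhibition vs log concentration.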

The target in assay [3] is T2, EGFR (d746-750) (Homo sapiens, UniProt P00533, DEL746-750).
T2 construct: purchased SignalChem E10-122JG
As to the kind of experiment: Biochemical EGFR inhibition assay (Caliper mobility shift), EGFR (d746-750). The following applies: biochemical Caliper mobility shift assay, EGFR Exon 19-del enzyme; read-out: Enz EGFR Exon 19-del IC50. The procedure, abridged: as §1

The IC50 is the point on the concentration scale where inhibition reaches its midpoint.

Each structure is given as a SMILES string. Bounds are passed on as bounds.

T1 sequence (P00533 25-1210 L858R): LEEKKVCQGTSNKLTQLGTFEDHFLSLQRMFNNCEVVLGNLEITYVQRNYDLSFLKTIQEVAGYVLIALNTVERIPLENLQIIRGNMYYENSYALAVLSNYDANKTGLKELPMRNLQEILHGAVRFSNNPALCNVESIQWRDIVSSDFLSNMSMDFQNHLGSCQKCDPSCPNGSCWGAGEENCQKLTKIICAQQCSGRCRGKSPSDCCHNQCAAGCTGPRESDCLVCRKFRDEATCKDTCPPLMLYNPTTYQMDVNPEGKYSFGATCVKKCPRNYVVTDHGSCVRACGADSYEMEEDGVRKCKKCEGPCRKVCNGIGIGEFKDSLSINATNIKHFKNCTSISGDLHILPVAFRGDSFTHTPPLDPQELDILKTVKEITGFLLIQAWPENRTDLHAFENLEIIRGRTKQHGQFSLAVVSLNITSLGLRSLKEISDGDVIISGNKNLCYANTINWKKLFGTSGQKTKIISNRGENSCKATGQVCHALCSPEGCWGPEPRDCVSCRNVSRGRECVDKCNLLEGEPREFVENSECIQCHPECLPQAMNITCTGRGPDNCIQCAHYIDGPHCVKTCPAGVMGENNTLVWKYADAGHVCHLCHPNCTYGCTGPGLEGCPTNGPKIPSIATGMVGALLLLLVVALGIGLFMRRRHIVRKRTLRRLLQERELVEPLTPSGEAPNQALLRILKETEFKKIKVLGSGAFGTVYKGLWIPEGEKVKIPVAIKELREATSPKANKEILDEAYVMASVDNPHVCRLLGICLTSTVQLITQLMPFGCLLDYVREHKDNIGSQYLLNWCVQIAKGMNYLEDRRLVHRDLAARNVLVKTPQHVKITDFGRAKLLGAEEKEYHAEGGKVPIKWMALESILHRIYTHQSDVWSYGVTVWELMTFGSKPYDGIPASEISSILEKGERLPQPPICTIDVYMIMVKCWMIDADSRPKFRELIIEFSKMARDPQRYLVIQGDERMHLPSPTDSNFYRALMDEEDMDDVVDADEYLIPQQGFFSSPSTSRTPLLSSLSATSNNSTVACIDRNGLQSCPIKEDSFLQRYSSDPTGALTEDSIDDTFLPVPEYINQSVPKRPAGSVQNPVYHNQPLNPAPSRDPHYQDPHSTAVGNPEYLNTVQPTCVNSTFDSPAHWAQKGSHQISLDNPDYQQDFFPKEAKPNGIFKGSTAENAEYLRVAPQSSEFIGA
intracellular phosphorylation of EGFR (Tyr1068) in PC-9 cells, sequence (P00533 with tags, fused parts or gaps DEL746-750): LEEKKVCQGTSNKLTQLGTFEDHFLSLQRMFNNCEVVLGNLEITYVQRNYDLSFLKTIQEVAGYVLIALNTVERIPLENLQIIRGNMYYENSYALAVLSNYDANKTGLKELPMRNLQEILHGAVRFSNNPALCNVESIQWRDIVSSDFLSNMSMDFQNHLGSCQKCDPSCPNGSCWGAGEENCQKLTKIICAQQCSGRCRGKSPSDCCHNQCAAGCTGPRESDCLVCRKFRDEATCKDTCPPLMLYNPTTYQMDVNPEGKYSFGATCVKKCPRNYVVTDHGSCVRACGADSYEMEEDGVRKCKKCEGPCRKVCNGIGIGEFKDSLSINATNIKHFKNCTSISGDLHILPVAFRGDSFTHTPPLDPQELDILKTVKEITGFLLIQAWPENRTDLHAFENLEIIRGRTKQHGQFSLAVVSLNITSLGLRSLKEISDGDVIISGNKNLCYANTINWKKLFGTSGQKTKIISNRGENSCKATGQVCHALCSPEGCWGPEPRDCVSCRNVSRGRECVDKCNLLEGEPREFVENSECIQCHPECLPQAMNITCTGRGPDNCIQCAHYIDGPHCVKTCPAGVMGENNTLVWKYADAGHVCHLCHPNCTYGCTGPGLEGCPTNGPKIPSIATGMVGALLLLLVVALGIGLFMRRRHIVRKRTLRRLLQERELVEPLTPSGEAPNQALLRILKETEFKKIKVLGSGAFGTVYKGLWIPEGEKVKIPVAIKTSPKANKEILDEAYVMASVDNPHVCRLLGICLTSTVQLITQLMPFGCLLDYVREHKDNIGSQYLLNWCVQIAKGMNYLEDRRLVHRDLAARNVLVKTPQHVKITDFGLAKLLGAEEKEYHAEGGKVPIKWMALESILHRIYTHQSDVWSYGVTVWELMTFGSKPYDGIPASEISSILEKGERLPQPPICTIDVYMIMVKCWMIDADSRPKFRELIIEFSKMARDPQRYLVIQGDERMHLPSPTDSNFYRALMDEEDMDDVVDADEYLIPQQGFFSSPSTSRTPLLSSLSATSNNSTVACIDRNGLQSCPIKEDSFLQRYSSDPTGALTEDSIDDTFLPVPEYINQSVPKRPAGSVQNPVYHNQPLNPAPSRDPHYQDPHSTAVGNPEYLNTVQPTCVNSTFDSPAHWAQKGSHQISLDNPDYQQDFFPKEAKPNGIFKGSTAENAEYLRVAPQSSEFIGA
T2 sequence (P00533 with tags, fused parts or gaps DEL746-750 limits assumed): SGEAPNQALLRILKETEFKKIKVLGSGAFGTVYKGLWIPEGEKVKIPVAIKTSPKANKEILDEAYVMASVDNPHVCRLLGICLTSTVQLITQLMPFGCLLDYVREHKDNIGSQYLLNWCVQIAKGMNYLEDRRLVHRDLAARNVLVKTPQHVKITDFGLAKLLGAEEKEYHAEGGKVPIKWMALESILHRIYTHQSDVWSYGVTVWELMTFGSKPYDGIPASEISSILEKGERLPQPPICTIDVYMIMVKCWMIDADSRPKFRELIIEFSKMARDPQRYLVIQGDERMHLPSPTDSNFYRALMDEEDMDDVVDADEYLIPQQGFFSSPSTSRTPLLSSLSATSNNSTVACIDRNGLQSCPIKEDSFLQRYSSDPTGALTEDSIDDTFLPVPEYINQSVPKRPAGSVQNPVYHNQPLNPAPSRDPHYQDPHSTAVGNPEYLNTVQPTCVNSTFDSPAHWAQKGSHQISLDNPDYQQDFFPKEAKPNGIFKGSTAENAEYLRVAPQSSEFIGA

For the compound `Cn1cc(-c2cc(OC3CC4(COC4)C3)c3c(Nc4ccc5ncsc5c4)ncnc3c2)cn1` [Example 38, N-(5-((2-oxaspiro[3.3]heptan-6-yl)oxy)-7-(1-methyl-1H-pyrazol-4-yl)quinazolin-4-yl)benzo[d]thiazol-6-amine], the half-maximal inhibitory concentration (IC50) in assay [1], in assay [2] and in assay [3] was ≤ 0.01 µM each time.

As for `Cn1cc(-c2cc(OCC3(C)COC3)c3c(Nc4ccc5ncsc5c4)ncnc3c2)cn1` [Example 49, N-(7-(1-methyl-1H-pyrazol-4-yl)-5-((3-methyloxetan-3-yl)methoxy)quinazolin-4-yl)benzo[d]thiazol-6-amine], the IC50 in assay [1] is ≤ 0.01 µM; in assay [2], 0.0101 to 0.05 µM; in assay [3] it was ≤ 0.01 µM.

Consider `Cn1cc(-c2cc(OCC(F)(F)F)c3c(Nc4ccc5ncsc5c4)ncnc3c2)cn1` [Example 50, N-(7-(1-methyl-1H-pyrazol-4-yl)-5-(2,2,2-trifluoroethoxy)quinazolin-4-yl)benzo[d]thiazol-6-amine], for which the IC50 was ≤ 0.01 µM in assay [1], 0.0101 to 0.05 µM in assay [2] and ≤ 0.01 µM in assay [3].

On to `CN1CCC(C)(COc2cc(-c3cnn(C)c3)cc3ncnc(Nc4ccc5ncsc5c4)c23)C1=O` (stereo not drawn) [Example 54, 3-(((4-(benzo[d]thiazol-6-ylamino)-7-(1-methyl-1H-pyrazol-4-yl)quinazolin-5-yl)oxy)methyl)-1,3-dimethylpyrrolidin-2-one], for which the half-maximal inhibitory concentration (IC50) in assay [1] was ≤ 0.01 µM; in assay [2] it was 0.0101 to 0.05 µM; in assay [3], ≤ 0.01 µM.

As for `Cn1cc(-c2cc(OC3(C)CC3)c3c(Nc4ccc5ncsc5c4)ncnc3c2)cn1` [Example 57, N-(7-(1-methyl-1H-pyrazol-4-yl)-5-(1-methylcyclopropoxy)quinazolin-4-yl)benzo[d]thiazol-6-amine], the IC50 in assay [1], in assay [2] and in assay [3] was ≤ 0.01 µM in each case.

Turning to `CN1CCC(COc2cc(-c3cnn(C)c3)cc3ncnc(Nc4ccc5ncsc5c4)c23)C1=O` (stereo not drawn) [Example 61, 3-(((4-(benzo[d]thiazol-6-ylamino)-7-(1-methyl-1H-pyrazol-4-yl)quinazolin-5-yl)oxy)methyl)-1-methylpyrrolidin-2-one], the figures for the IC50 in assay [1], in assay [2] and in assay [3] were ≤ 0.01 µM, 0.0101 to 0.05 µM and ≤ 0.01 µM, respectively.

On to `C[C@@H](Oc1cc(-c2cnn(C)c2)cc2ncnc(Nc3ccc4ncsc4c3)c12)C1CC1` [Example 65, (R)-N-(5-(1-cyclopropylethoxy)-7-(1-methyl-1H-pyrazol-4-yl)quinazolin-4-yl)benzo[d]thiazol-6-amine], for which the IC50 in assay [1], in assay [2] and in assay [3] was ≤ 0.01 µM in each case.

As for `C[C@H](Oc1cc(-c2cnn(C)c2)cc2ncnc(Nc3ccc4ncsc4c3)c12)C1CC1` [Example 66, (S)-N-(5-(1-cyclopropylethoxy)-7-(1-methyl-1H-pyrazol-4-yl)quinazolin-4-yl)benzo[d]thiazol-6-amine], the IC50 in assay [1], in assay [2] and in assay [3] was ≤ 0.01 µM in each case.

For `C[C@@H](Oc1cc(-c2cnn(C)c2)cc2ncnc(Nc3ccc4ncsc4c3)c12)C(F)(F)F` [Example 67, (R)-N-(7-(1-methyl-1H-pyrazol-4-yl)-5-((1,1,1-trifluoropropan-2-yl)oxy)quinazolin-4-yl)benzo[d]thiazol-6-amine], the IC50 in assay [1] was ≤ 0.01 µM; in assay [2], 0.0101 to 0.05 µM; in assay [3], ≤ 0.01 µM.

Consider `C[C@H](Oc1cc(-c2cnn(C)c2)cc2ncnc(Nc3ccc4ncsc4c3)c12)C(F)(F)F` [Example 68, (S)-N-(7-(1-methyl-1H-pyrazol-4-yl)-5-((1,1,1-trifluoropropan-2-yl)oxy)quinazolin-4-yl)benzo[d]thiazol-6-amine], for which the IC50 in assay [1], in assay [2] and in assay [3] was ≤ 0.01 µM throughout.

As for `CN1CCC[C@H](Oc2cc(-c3cnn(C)c3)cc3ncnc(Nc4ccc5ncsc5c4F)c23)C1` [Example 69, (S)-7-fluoro-N-(7-(1-methyl-1H-pyrazol-4-yl)-5-((1-methylpiperidin-3-yl)oxy)quinazolin-4-yl)benzo[d]thiazol-6-amine], the IC50 in assay [1], in assay [2] and in assay [3] was ≤ 0.01 µM throughout.

As for `Cn1cc(-c2cc(OC3CC3)c3c(Nc4ccc5ncsc5c4F)ncnc3c2)cn1` [Example 76, N-(5-cyclopropoxy-7-(1-methyl-1H-pyrazol-4-yl)quinazolin-4-yl)-7-fluorobenzo[d]thiazol-6-amine], the IC50 is ≤ 0.01 µM in assay [1], 0.0101 to 0.05 µM in assay [2] and ≤ 0.01 µM in assay [3].

For `COc1nn(C)cc1-c1cc(OC2CC2)c2c(Nc3ccc4ncsc4c3)ncnc2c1` [Example 77, N-(5-cyclopropoxy-7-(3-methoxy-1-methyl-1H-pyrazol-4-yl)quinazolin-4-yl)benzo[d]thiazol-6-amine], the IC50 in assay [1], in assay [2] and in assay [3] was ≤ 0.01 µM each time.

`C[C@H](Oc1cc(-c2cnn(C)c2)cc2ncnc(Nc3ccc4ncsc4c3F)c12)C1CCOC1` (stereo partly drawn) [Example 90, 7-fluoro-N-(7-(1-methyl-1H-pyrazol-4-yl)-5-((1S)-1-(tetrahydrofuran-3-yl)ethoxy)quinazolin-4-yl)benzo[d]thiazol-6-amine]: the IC50 in assay [1] was ≤ 0.01 µM; in assay [2], 0.0101 to 0.05 µM; in assay [3] it was ≤ 0.01 µM.

Take `COC[C@@H](C)Oc1cc(-c2cnn(C)c2)cc2ncnc(Nc3ccc4ncsc4c3F)c12` [Example 91, (R)-7-fluoro-N-(5-((1-methoxypropan-2-yl)oxy)-7-(1-methyl-1H-pyrazol-4-yl)quinazolin-4-yl)benzo[d]thiazol-6-amine]: the IC50 in assay [1], in assay [2] and in assay [3] was ≤ 0.01 µM throughout.

In the case of `C[C@@H](Oc1cc(-c2cnn(C)c2)cc2ncnc(Nc3ccc4ncsc4c3F)c12)[C@@H]1CCCO1` [Example 112, 7-fluoro-N-(7-(1-methyl-1H-pyrazol-4-yl)-5-((R)-1-((S)-tetrahydrofuran-2-yl)ethoxy)quinazolin-4-yl)benzo[d]thiazol-6-amine], the half-inhibitory concentration (IC50) in assay [1], in assay [2] and in assay [3] was ≤ 0.01 µM each time.

Take `C[C@@H](Oc1cc(-c2cnn(C)c2)cc2ncnc(Nc3ccc4ncsc4c3F)c12)[C@H]1CCCO1` [Example 113, 7-fluoro-N-(7-(1-methyl-1H-pyrazol-4-yl)-5-((R)-1-((R)-tetrahydrofuran-2-yl)ethoxy)quinazolin-4-yl)benzo[d]thiazol-6-amine]: the IC50 in assay [1], in assay [2] and in assay [3] was ≤ 0.01 µM in each case.

Consider `C[C@@H](Oc1cc(N2CCN(C)CC2)cc2ncnc(Nc3ccc4ncsc4c3F)c12)[C@@H]1CCCO1` [Example 114, 7-fluoro-N-(7-(4-methylpiperazin-1-yl)-5-((R)-1-((S)-tetrahydrofuran-2-yl)ethoxy)quinazolin-4-yl)benzo[d]thiazol-6-amine], for which the IC50 is ≤ 0.01 µM in assay [1], 0.0101 to 0.05 µM in assay [2] and ≤ 0.01 µM in assay [3].

Turning to `C[C@@H](Oc1cc(N2CCN(C)CC2)cc2ncnc(Nc3ccc4ncsc4c3F)c12)[C@H]1CCCO1` [Example 115, 7-fluoro-N-(7-(4-methylpiperazin-1-yl)-5-((R)-1-((R)-tetrahydrofuran-2-yl)ethoxy)quinazolin-4-yl)benzo[d]thiazol-6-amine], the IC50 in assay [1], in assay [2] and in assay [3] was ≤ 0.01 µM each time.

Take `COc1cc(O[C@H](C)C2COC2)c2c(Nc3ccc4ncsc4c3)ncnc2c1` [Example 124, (R)-N-(7-methoxy-5-(1-(oxetan-3-yl)ethoxy)quinazolin-4-yl)benzo[d]thiazol-6-amine]: the IC50 in assay [1] is ≤ 0.01 µM; in assay [2], 0.0101 to 0.05 µM; in assay [3], ≤ 0.01 µM.

On to `CC(C)Oc1cc(O[C@H](C)C2COC2)c2c(Nc3ccc4ncsc4c3)ncnc2c1` [Example 125, (R)-N-(7-isopropoxy-5-(1-(oxetan-3-yl)ethoxy)quinazolin-4-yl)benzo[d]thiazol-6-amine], for which the results for the IC50 in assay [1], in assay [2] and in assay [3] were ≤ 0.01 µM, 0.0101 to 0.05 µM and ≤ 0.01 µM, respectively.

In the case of `COCCOc1cc(O[C@H](C)C2COC2)c2c(Nc3ccc4ncsc4c3)ncnc2c1` [Example 126, (R)-N-(7-(2-methoxyethoxy)-5-(1-(oxetan-3-yl)ethoxy)quinazolin-4-yl)benzo[d]thiazol-6-amine], the IC50 in assay [1], in assay [2] and in assay [3] was ≤ 0.01 µM each time.

For the compound `C[C@@H](Oc1cc(N2CC3CC(C2)O3)cc2ncnc(Nc3ccc4ncsc4c3)c12)C1COC1` [Example 129, N-(7-(6-oxa-3-azabicyclo[3.1.1]heptan-3-yl)-5-((R)-1-(oxetan-3-yl)ethoxy)quinazolin-4-yl)benzo[d]thiazol-6-amine], the IC50 in assay [1], in assay [2] and in assay [3] was ≤ 0.01 µM throughout.

Turning to `[2H]C([2H])([2H])Oc1cc(O[C@H](C)C2COC2)c2c(Nc3ccc4ncsc4c3F)ncnc2c1` [Example 130, (R)-7-fluoro-N-(7-(methoxy-d3)-5-(1-(oxetan-3-yl)ethoxy)quinazolin-4-yl)benzo[d]thiazol-6-amine], the IC50 in assay [1], in assay [2] and in assay [3] was ≤ 0.01 µM throughout.

Values taken from US20260207602A1, “EGFR INHIBITORS” (Blueprint Medicines Corporation, priority 2022, published 2026).
